# Entries after “also recorded” stand apart in the source; their conditions may differ. Like-named read-outs stand apart in the source and are kept apart here.
# Assays:
# ACC-2D6.3 channel = ACC-2D6.3 channel (Caenorhabditis elegans, UniProt Q18812); assay: cell-based
# Excerpt: (§1) For capped cRNA synthesis, cDNAs were subcloned into the pT7N vector, which contains a T7 RNA polymerase promoter, the 5′- and 3′-UTR of Xenopus laevis beta-globin, and an encoded poly(A+) tail (Cary R B, Klymkowsky M W, Evans R M, Domingo A, Dent J A, Backhus L E (1994) Vimentin's tail interacts with actin-containing structures in vivo. J Cell Sci 107:1609-1622.). The pT7NcDNA constructs were linearized with Sal I (ACC-2D6.3) or BamHI (ACC-1G6.4) and transcribed using the MEGAscript Kit (Ambion, Austin, Tex., USA). Synthesized cRNAs were recovered by LiCl precipitation and resuspended in nuclease-free H2O at final concentration of 1 microgram/ml.
# (§2) Oocytes were harvested from mature female Xenopus leavis according to standard procedures (Goldin, A. L. (1992) Maintenance of Xenopus laevis and oocyte injection. Methods Enzymol. 207: 266-79.). To remove inner ovarian epithelium, thecal cell layer, and follicular cells, the ovarian pieces were placed in OR-2 solution: 82.5 mM NaCl, 2 mM KCl, 1 mM MgCl2, and 5 mM Hepes (pH 7.5) containing 1 mg/ml type I collagenase (Sigma, St Louis Mo., USA) either for 3 hours at 20° C. with gentle agitation or for 1 hour followed by manual defolliculization. The stage VI defolliculated oocytes were placed in ND96 solution (96 mM NaCl, 2 mM KCl, 1.8 mM CaCl2, 1 mM MgCl2, and 5 mM Hepes, pH7.5). Oocytes were injected with 40 nl of cRNA using the Nanoject system (Drummond Scientific, Broomall, Pa., USA). Injected oocytes were incubated at 20° C. in ND96 supplemented with […] gentamycin and […] pyruvate. Oocytes were allowed to express cRNA for two days before measurements were taken.
# (§3) Two-electrode voltage-clamp recordings were performed using the AxoClamp 2B amplifier (Axon Instruments, Foster City, Calif., USA). Microelectrodes were pulled from borosilicate glass capillaries (Word Precision Instruments, Inc., Sarasota, Fla., USA) on the P-97 micropipette puller Sutter Instruments, Novato, Calif., USA). […] Each oocyte was placed in RC-12 recording chamber (Warner Instrument Inc., Hamden, Conn., USA) or a Maltese cross chamber (ALA Scientific Instruments, Westbury, N.Y., USA) and clamped at −80 mV. Data were acquired at 1 kHz using Clampex software (Axon Instruments, Foster City, Calif., USA).
# (§4) Dose-response curves for agonists were generated by their applying the agonist in increasing concentrations followed by 3-9 min washes at each concentration. To determine EC50 and Hill coefficient agonist dose response curves were fit using the following equation: f(I)=(Imax[I]^n/(EC50^n+[I]^n))+Imin, where I is the normalized response to agonist at certain concentration, Imax is the maximal response elicited by a saturating concentration of agonist, EC50 is the concentration of agonist inducing half-maximal response, n is the Hill coefficient, and Imin is the normalized response at lowest agonist concentration.
# (§5) The mean and standard error of the mean of peak current responses of at least three oocytes per experiment are represented.
# (§6) All drugs were obtained from Sigma-Aldrich (St. Louis, Mo. USA) except imidicloprid (IMI) which was provided by Crompton Co. (Guelph, ON, Canada). Drugs were dissolved in ND96 except IMI, which was made as a stock solution in DMSO and diluted to working concentrations in ND96. If required, drug solutions were adjusted to pH 7.5 with either NaOH or HCl. Fresh solutions were prepared before measurements and stored at 4° C. for 1-5 days.
# ACC-3D10.5 = assay: Two-electrode voltage-clamp of Xenopus oocytes injected with ACC-3D10.5 cRNA; type: cell-based, C. elegans; conditions: 1 mM
# Description: (§8) Oocytes were harvested from mature female Xenopus leavis according to standard procedures (Goldin, A. L. (1992) Maintenance of Xenopus laevis and oocyte injection. Methods Enzymol. 207: 266-79.). To remove inner ovarian epithelium, thecal cell layer, and follicular cells, the ovarian pieces were placed in OR-2 solution: 82.5 mM NaCl, 2 mM KCl, 1 mM MgCl2, and 5 mM Hepes (pH 7.5) containing 1 mg/ml type I collagenase (Sigma, St Louis Mo., USA) either for 3 hours at 20° C. with gentle agitation or for 1 hour followed by manual defolliculization. The stage VI defolliculated oocytes were placed in ND96 solution (96 mM NaCl, 2 mM KCl, 1.8 mM CaCl2, 1 mM MgCl2, and 5 mM Hepes, pH7.5). Oocytes were injected with 40 nl of cRNA using the Nanoject system (Drummond Scientific, Broomall, Pa., USA). Injected oocytes were incubated at 20° C. in ND96 supplemented with 100 mg/ml gentamycin and 550 mg/ml pyruvate. Oocytes were allowed to express cRNA for two days before measurements were taken.
# ACC-4E9.9 = assay: Two-electrode voltage-clamp of Xenopus oocytes injected with ACC-4E9.9 cRNA; type: cell-based, C. elegans; conditions: 1 mM
# Description: as §8
# ACC-2D6.3+ACC-3D10.5 = type: cell-based, C. elegans; conditions: 1 mM
# Description: as §8
# ACC-2D6.3+ACC-4E9.9 = type: cell-based, C. elegans; conditions: 1 mM
# Description: as §8
# ACC-2 Y100L = ACC-2 Y100L (Caenorhabditis elegans, UniProt Q18812, Y100L); assay: Voltage-clamp of Xenopus oocytes expressing ACC-2 mutant Y100L; type: cell-based, C. elegans
# Chain of ACC-2 Y100L (Q18812 whole entry Y100L, looked up): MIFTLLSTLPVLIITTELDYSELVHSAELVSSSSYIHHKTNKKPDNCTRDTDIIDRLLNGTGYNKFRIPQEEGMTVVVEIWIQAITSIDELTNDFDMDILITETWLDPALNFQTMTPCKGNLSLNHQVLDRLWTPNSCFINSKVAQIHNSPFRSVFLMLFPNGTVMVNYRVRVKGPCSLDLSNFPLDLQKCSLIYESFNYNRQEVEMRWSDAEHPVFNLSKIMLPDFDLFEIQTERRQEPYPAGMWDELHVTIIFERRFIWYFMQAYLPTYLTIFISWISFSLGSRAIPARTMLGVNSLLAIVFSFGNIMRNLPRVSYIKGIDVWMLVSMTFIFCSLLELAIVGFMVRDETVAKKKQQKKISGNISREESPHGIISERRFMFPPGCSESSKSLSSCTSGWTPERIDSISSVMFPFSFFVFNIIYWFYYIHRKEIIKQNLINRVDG
# Description: as §3, §4
# (§7) These mutations are substitutions of Leu for Tyr at amino acid 100 (Y100L) and Tyr for Phe at amino acid 160 (F160Y).
# ACC-2 F160Y = ACC-2 F160Y (Caenorhabditis elegans, UniProt Q18812, F160Y); assay: Voltage-clamp of Xenopus oocytes expressing ACC-2 mutant F160Y; type: cell-based, C. elegans
# Chain of ACC-2 F160Y (Q18812 whole entry F160Y, looked up): as the sequence (Q18812 whole entry Y100L, looked up) above, with L100Y, F160Y counted along it
# Description: as §3, §4, §7
# ACC-1G6.4 channel [1] = biological target: T1, ACC-1G6.4 channel (Caenorhabditis elegans, UniProt Q21005); assay: Two-electrode voltage-clamp of Xenopus oocytes expressing ACC-1G6.4 homomeric channel; type: cell-based, C. elegans
# T1 construct: Agonist: percentage of maximal acetylcholine-elicited response; other: compound at 0.1 mM; Agonist: percentage of maximal acetylcholine-elicited response; other: compound at 0.2 mM; other: compound at 0.4 mM; other: compound at 0.8 mM; Agonist: percentage of maxim
# T1 sequence (Q21005 whole entry, looked up): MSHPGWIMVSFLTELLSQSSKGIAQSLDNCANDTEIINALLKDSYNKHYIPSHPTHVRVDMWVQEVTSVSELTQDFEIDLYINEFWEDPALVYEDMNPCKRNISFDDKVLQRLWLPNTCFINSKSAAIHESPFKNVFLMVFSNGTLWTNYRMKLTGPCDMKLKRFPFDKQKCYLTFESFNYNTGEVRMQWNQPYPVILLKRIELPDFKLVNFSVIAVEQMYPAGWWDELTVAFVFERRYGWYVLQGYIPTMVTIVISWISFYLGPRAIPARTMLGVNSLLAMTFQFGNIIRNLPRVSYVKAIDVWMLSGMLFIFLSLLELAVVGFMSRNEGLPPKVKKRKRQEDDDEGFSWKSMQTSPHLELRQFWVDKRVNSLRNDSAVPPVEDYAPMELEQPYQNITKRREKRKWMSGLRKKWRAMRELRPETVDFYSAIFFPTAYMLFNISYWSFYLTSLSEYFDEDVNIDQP
# Excerpt: as §1, §2, §3, §4, §5, §6
# ACC-1G6.4 channel [2] = test system: T2, ACC-1G6.4 channel; assay: as above; type: cell-based, C. elegans; conditions: one range given for both channels
# T2 construct: rows headed: evoked current as % of the maximal ACh-elicited current; other: text; maximal magnitude of ACh-elicited inward current; other: −80 mV
# Excerpt: as §1, §2, §3, §4, §5, §6
# [3] = EC50 (agonist), oocytes clamped at −80 mV, wild type
# [4] = concentration tested in brackets where printed
# Chain of ACC-2D6.3 channel (Q18812 whole entry, looked up): as the sequence (Q18812 whole entry Y100L, looked up) above, with L100Y counted along it
Compound,estimated Hill coefficient (agonist) (ACC-2D6.3 channel),EC50 (ACC-2D6.3 channel; [3]) [µM],"EC50 (ACC-2D6.3 channel; EC50, Table 4) [µM]",current response (ACC-3D10.5),response (in words) (ACC-4E9.9),current response (ACC-2D6.3+ACC-3D10.5),response (in words) (ACC-2D6.3+ACC-4E9.9),EC50 (ACC-2 Y100L) [µM],EC50 (ACC-2 F160Y) [µM],estimated Hill coefficient (agonist) (ACC-1G6.4 channel [1]; agonist dose-response),agonist action (in words) (ACC-1G6.4 channel [1]; [4]),antagonist action (in words) (ACC-1G6.4 channel [1]; [4]),"EC50 (ACC-1G6.4 channel [1]; oocytes clamped at −80 mV, read-out: EC50 (agonist)) [µM]",evoked current as % of the maximal ACh-elicited current (ACC-1G6.4 channel [2]),evoked current as % of the maximal ACh-elicited current (ACC-2D6.3 channel),estimated Hill coefficient (agonist) (ACC-2D6.3 channel; agonist dose-response),antagonist action (in words) (ACC-2D6.3 channel; [4])
"CC(=O)OCC[N+](C)(C)C [ACh, acetylcholine]",2.64±0.08,9.54 ± 0.11,9.5,10-30 nA,no response,50-60 nA,did not respond,351 ± 33,44 ± 1.8,,,,,,,,
COC(=O)C1=CCCN(C)C1 [arecoline],,754 ± 22,,,,,,,,1.59±0.09,agonists; also recorded: strong agonist; also recorded: strongly,did not inhibit the ACh response,4.7 ± 0.11,82-89%,82-89%,2.66±0.23,did not inhibit the ACh response

# Reference: US7700272B2, “Polynucleotides encoding acetylcholine-gated chloride channel subunits of Caenorhabditis elegans” (priority 2004, dated 2010)
